Experimental data reported in patent US20230250066A1, “HERBICIDAL CINNOLINE DERIVATIVES” (SYNGENTA CROP PROTECTION AG, priority 2020, published 2023).

Columns and labels:
Format in all cases: in vivo
[1] = tested on: Amaranthus retoflexus (AMARE); assay: Post-emergence herbicidal test; conditions: 1000 g/ha unless otherwise stated, evaluated after 13 days
Method in brief: (§1)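 Spray-applied at 1000 g/ha unless stated, in the glasshouse. Damage rated 13 days later on a 0–5 scale.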

[2] = tested on: Ipomoea hederacea (IPOHE); assay: Post-emergence herbicidal test; conditions: 1000 g/ha unless otherwise stated, evaluated after 13 days
Method in brief: as §1

Setaria faberi (SETFA) [3] = assay: Post-emergence herbicidal test; conditions: 1000 g/ha unless otherwise stated, evaluated after 13 days
Method in brief: as §1

[4] = tested on: Abutilon theophrasti (ABUTH); assay: Post-emergence herbicidal test; conditions: 1000 g/ha unless otherwise stated, evaluated after 13 days
Method in brief: as §1

Zea mays (ZEAMX) [5] = assay: Post-emergence herbicidal test; conditions: 1000 g/ha unless otherwise stated, evaluated after 13 days
Method in brief: as §1

[6] = tested on: Echinochloa crus-galli (ECHCG); assay: Post-emergence herbicidal test; conditions: 1000 g/ha unless otherwise stated, evaluated after 13 days
Method in brief: as §1

Zea mays (ZEAMX) [7] = assay: Pre-emergence herbicidal test; conditions: 1000 g/ha, evaluated after 13 days
Setaria faberi (SETFA) [8] = assay: Pre-emergence herbicidal test; conditions: 1000 g/ha, evaluated after 13 days
[9] = tested on: Amaranthus retoflexus (AMARE); assay: Pre-emergence herbicidal test; conditions: 1000 g/ha, evaluated after 13 days
[10] = tested on: Ipomoea hederacea (IPOHE); assay: Pre-emergence herbicidal test; conditions: 1000 g/ha, evaluated after 13 days
[11] = tested on: Echinochloa crus-galli (ECHCG); assay: Pre-emergence herbicidal test; conditions: 1000 g/ha, evaluated after 13 days
[12] = tested on: Abutilon theophrasti (ABUTH); assay: Pre-emergence herbicidal test; conditions: 1000 g/ha, evaluated after 13 days

Row | Structure (SMILES) | percentage damage caused to the plant, AMARE (five-point scale) [1] | percentage damage caused to the plant, IPOHE (five-point scale) [2] | percentage damage caused to the plant, SETFA (five-point scale) (Setaria faberi (SETFA) [3]) | percentage damage caused to the plant, ABUTH (five-point scale) [4] | percentage damage caused to the plant, ZEAMX (five-point scale) (Zea mays (ZEAMX) [5]) | percentage damage caused to the plant, ECHCG (five-point scale) [6] | percentage damage caused to the plant, five-point scale, ZEAMX (Zea mays (ZEAMX) [7]) | percentage damage caused to the plant, five-point scale, SETFA (Setaria faberi (SETFA) [8]) | percentage damage caused to the plant, five-point scale, AMARE [9] | percentage damage caused to the plant, five-point scale, IPOHE [10] | percentage damage caused to the plant, five-point scale, ECHCG [11] | percentage damage caused to the plant, five-point scale, ABUTH [12]
1 | CCS(=O)(=O)c1cccc2c1c(=O)c(C(=O)O)nn2-c1ccc(OC(F)(F)F)cc1 [Compound P27, 5-ethylsulfonyl-4-oxo-1-[4-(trifluoromethoxy)phenyl]cinnoline-3-carboxylic acid] | 0 (0=0%) | 0 (0=0%) | 2 (2=21-40%) | 1 (1=10-20%) | 1 (1=10-20%) | 2 (2=21-40%) | 1 (1=10-20%) | 3 (3=41-60%) | 0 (0=0%) | 0 (0=0%) | 0 (0=0%) | 0 (0=0%)
2 | CCOC(=O)c1nn(-c2ccc(OC(F)(F)F)cc2)c2cccc([S+](C)[O-])c2c1=O (stereo not drawn) [Compound P28, ethyl 5-methylsulfinyl-4-oxo-1-[4-(trifluoromethoxy)phenyl]cinnoline-3-carboxylate] | 1 (1=10-20%) | 0 (0=0%) | 1 (1=10-20%) | 1 (1=10-20%) | 0 (0=0%) | 0 (0=0%) | 0 (0=0%) | 0 (0=0%) | 0 (0=0%) | 0 (0=0%) | 0 (0=0%) | 0 (0=0%)
3 | O=C(O)c1nn(-c2ccc(OC(F)(F)F)cc2)c2cccc(S(=O)(=O)C3CC3)c2c1=O [Compound P29, 5-cyclopropylsulfonyl-4-oxo-1-[4-(trifluoromethoxy)phenyl]cinnoline-3-carboxylic acid] | 0 (0=0%) | 0 (0=0%) | 0 (0=0%) | 0 (0=0%) | 0 (0=0%) | 0 (0=0%) | 0 (0=0%) | 0 (0=0%) | 0 (0=0%) | 0 (0=0%) | 0 (0=0%) | 0 (0=0%)
4 | O=C(O)c1nn(-c2ccc(OC(F)(F)F)cc2)c2cccc(SC3CC3)c2c1=O [Compound P30, 5-cyclopropylsulfanyl-4-oxo-1-[4-(trifluoromethoxy)phenyl]cinnoline-3-carboxylic acid] | 1 (1=10-20%) | 1 (1=10-20%) | 1 (1=10-20%) | 1 (1=10-20%) | 1 (1=10-20%) | 1 (1=10-20%) | 0 (0=0%) | 0 (0=0%) | 0 (0=0%) | 0 (0=0%) | 0 (0=0%) | 0 (0=0%)
5 | O=C(O)c1nn(-c2ccc(OC(F)(F)F)cc2)c2cccc([S+]([O-])C3CC3)c2c1=O (stereo not drawn) [Compound P31, 5-cyclopropylsulfinyl-4-oxo-1-[4-(trifluoromethoxy)phenyl]cinnoline-3-carboxylic acid] | 0 (0=0%) | 0 (0=0%) | 0 (0=0%) | 0 (0=0%) | 0 (0=0%) | 0 (0=0%) | 0 (0=0%) | 0 (0=0%) | 0 (0=0%) | 0 (0=0%) | 0 (0=0%) | 0 (0=0%)
6 | CCOC(=O)c1nn(-c2ccc(OC(F)(F)F)cc2)c2cccc([S+]([O-])C3CC3)c2c1=O (stereo not drawn) [Compound P32, ethyl 5-cyclopropylsulfinyl-4-oxo-1-[4-(trifluoromethoxy)phenyl]cinnoline-3-carboxylate] | 0 (0=0%) | 0 (0=0%) | 1 (1=10-20%) | 0 (0=0%) | 1 (1=10-20%) | 1 (1=10-20%) | 0 (0=0%) | 2 (2=21-40%) | 0 (0=0%) | 0 (0=0%) | 1 (1=10-20%) | 0 (0=0%)
7 | CCOC(=O)c1nn(-c2ccc(OC(F)(F)F)cc2)c2cccc(SC3CC3)c2c1=O [Compound P33, ethyl 5-cyclopropylsulfanyl-4-oxo-1-[4-(trifluoromethoxy)phenyl]cinnoline-3-carboxylate] | 0 (0=0%) | 0 (0=0%) | 0 (0=0%) | 1 (1=10-20%) | 0 (0=0%) | 0 (0=0%) | 0 (0=0%) | 2 (2=21-40%) | 0 (0=0%) | 0 (0=0%) | 1 (1=10-20%) | 0 (0=0%)
8 | CCOC(=O)c1nn(-c2ccc(OC(F)(F)F)cc2)c2cccc(S(=O)(=O)C3CC3)c2c1=O [Compound P34, ethyl 5-cyclopropylsulfonyl-4-oxo-1-[4-(trifluoromethoxy)phenyl]cinnoline-3-carboxylate] | 0 (0=0%) | 0 (0=0%) | 0 (0=0%) | 0 (0=0%) | 0 (0=0%) | 0 (0=0%) | 0 (0=0%) | 0 (0=0%) | 0 (0=0%) | 0 (0=0%) | 0 (0=0%) | 0 (0=0%)
